Assay [1] deals with blood pressure of normotensive male Wistar rats. The assay is described as follows: Heart rate and blood pressure in living rat (i.v., anaesthetized). The assay is classed as in vivo. To be noted: maximal decrease, 2 mg/kg i.v. An excerpt:
Normotensive Male Wistar rats (NTRs), weighing 200˜300 g were abdominal anaesthetized with pentobarbital sodium. Tracheal was cannulated to maintain normal respiration. Polyethylene tube was inserted into the left femoral vein to facilitate drug administration. A 3-way stopcock was used, with one end comnected to a syringe for drug injection, while the other end was connected to the syringe filled with physiological saline. The latter was used to prevent residual drugs in the polyethylene tube after injection, which would affect experimental accuracy.
The right femoral artery was also inserted with polyethylene, and a 3-way stopcock was used tool, where one end was connected to heparin solution to prevent embolism. The other end was comnected to a Disposable Diaphragm Dome, TA1019, and linked to a pressure transducer (Model P10EZ; Spectramed, Oxnard, Calif., USA). Through an amplifier, a recorder recorded the overall and average arterial pressure; heart rate to evaluate the effect of drug on blood pressure and heart rate. Different concentrations 0.1, 1.0, 2.0, 3.0 mg/kg of test compounds were given to the rats via femoral vein and the differences in the heart rate and blood pressure were compared. Table 2 shown maximal decrease of blood pressure affect of compounds after given 2.0 mg/kg test compounds to the rats.

The target of assay [2] is β1-adrenoceptor (left atrium) (Rattus norvegicus, UniProt P18090). The assay is described as follows: β1-adrenoceptor antagonism, left atrium, pA2. To be noted: Schild plot, mean ± SEM of six to eight experiments.
Assay [3] deals with β2-adrenoceptor (trachea). Briefly: β2-adrenoceptor antagonism, trachea, pA2. Set-up: species or system rat. The conditions noted are these: Schild plot, mean ± SEM of six to eight experiments.
Description: (§1) When the spontaneously beating rate of right atria reached a certain stability, cumulative administration of L-isoproterenol from 1×10^−10˜3×10^−10 M caused the heart rate to increase continuously, and a cumulative dose-response curve was obtained. Then the L-isoproterenol was thoroughly washed off with Kreb's solution to recover the right atria's heart rate stability. After the equilibrum was reached again for at least 60 minutes, different concentrations (10^−7, 10^−6, 10^−5 M) of compounds were added. 30 minutes later, cumulative administration of L-isoproterenol from 1×10^−10˜3×10^−10 M were carried out again, and another new cumulative dose-response curve was obtained. Administration of L-isoproterenol started from concentration 1×10^−10 M, and the concentration was raised 0.5 log each time for a total of six times. Cumulative administration interval was when the previous concentration reached its greatest effect, the next concentration would be immediately given. […] In other groups of rats, after separate administration of test compounds, their pA2 values were obtained.
pA2=−Log KB Log(DRADJ−1)=n log[B]−LogKB
For assay [4], the target named is T1, angiotensin converting enzyme (ACE) (Rattus norvegicus, UniProt P47820).
T1 construct: Centrifuged 250-300 mg lung tissue; from tissue; host or cells: rat lung membrane fraction
T1 sequence (P47820 36-1313): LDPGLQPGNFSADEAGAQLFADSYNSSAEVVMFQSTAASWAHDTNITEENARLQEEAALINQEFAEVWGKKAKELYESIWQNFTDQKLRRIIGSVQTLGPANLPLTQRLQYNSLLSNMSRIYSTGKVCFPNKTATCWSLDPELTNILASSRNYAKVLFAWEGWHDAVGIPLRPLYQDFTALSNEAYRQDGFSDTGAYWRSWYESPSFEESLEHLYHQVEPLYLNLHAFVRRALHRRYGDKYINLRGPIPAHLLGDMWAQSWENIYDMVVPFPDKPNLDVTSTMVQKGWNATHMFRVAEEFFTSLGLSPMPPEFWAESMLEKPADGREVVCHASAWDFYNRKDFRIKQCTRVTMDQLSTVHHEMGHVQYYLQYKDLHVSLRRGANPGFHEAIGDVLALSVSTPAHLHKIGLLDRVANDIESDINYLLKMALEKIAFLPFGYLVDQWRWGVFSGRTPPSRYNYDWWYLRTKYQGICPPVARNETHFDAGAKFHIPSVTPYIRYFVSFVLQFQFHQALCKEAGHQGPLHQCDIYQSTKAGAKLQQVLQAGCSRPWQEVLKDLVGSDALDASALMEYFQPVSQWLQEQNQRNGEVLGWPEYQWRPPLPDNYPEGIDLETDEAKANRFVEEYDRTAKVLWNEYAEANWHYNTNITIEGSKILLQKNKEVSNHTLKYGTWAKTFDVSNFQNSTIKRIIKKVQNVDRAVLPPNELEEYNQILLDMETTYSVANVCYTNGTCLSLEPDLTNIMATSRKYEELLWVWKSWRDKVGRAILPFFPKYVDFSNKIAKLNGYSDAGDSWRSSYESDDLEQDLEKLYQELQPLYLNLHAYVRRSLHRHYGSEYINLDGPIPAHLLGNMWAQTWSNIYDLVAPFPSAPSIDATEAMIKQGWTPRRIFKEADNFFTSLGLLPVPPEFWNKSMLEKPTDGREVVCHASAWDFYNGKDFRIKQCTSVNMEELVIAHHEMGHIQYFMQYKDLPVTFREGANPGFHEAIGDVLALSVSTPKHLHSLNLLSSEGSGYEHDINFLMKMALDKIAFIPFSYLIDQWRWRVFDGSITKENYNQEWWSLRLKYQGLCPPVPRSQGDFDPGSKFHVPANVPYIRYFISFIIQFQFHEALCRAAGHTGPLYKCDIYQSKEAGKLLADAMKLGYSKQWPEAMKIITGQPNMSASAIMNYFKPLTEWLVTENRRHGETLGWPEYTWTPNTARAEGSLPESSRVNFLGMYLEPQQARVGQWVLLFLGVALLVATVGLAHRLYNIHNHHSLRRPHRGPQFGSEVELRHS
The assay is described as follows: ACE activity value on tissue (rat lung membrane, Hip-His-Leu, fluorometric). It is filed as biochemical. The conditions noted are these: mean of three samples. The method, then: Centrifuged 250-300 mg lung tissue, 3 ml extracted liquid (10 mmol/L HEPES, 125 mmol/L NaCl, pH7.4) under 12000 g for 20 minutes at 4° C. by Teflon-glass homogenizer, the cell membrane was obtained. The 3 ml homogenized liquid was added into twice, before and after centrifuged. Then the Lowry's method was adopted to determine the protein content in the membrane. Mixing 15 minute of liquid and 30 mmol/L Hip-His-Leu solution at 37° C. Fluorometric was used to determine the Hippurate content. test compounds (10^−8M, 10^−7M, 10^−6M) dissolved in PBS normal saline and used as control group. Then ACE activity inhibition rate was determined.

Assay [5] has as its system β1-adrenoceptor (right atrium). The assay is described as follows: β1-adrenoceptor antagonism, spontaneously beating right atrium, pA2 vs L-isoproterenol. To be noted: for β1/β2 Ratio: antilogarithm of difference between mean pA2 of right atrium and trachea; for β1 pA2 value, Right atrium: Schild plot, mean ± SEM of six to eight experiments.
Description: The spontaneously-beating right atria was clipped on both end by heart shaped clips, where one end was fixed at the bottom of 10 ml of tissue bath made of physiological saline solution, and temperature maintained at 37° C. The other end of the atria was connected to a force transducer, and isometric contractions and beating rate of the right atria were recorded by COULBOURN AT-High-Speed VideoFigure. After the samples were given 250 mg of contractions and reach equilibrium the following experiments were carried out:
as §1
pA2=−Log KB Log(DRADJ−1)=n log[B]−LogKB

Chain of β1-adrenoceptor (left atrium) (P18090 whole entry): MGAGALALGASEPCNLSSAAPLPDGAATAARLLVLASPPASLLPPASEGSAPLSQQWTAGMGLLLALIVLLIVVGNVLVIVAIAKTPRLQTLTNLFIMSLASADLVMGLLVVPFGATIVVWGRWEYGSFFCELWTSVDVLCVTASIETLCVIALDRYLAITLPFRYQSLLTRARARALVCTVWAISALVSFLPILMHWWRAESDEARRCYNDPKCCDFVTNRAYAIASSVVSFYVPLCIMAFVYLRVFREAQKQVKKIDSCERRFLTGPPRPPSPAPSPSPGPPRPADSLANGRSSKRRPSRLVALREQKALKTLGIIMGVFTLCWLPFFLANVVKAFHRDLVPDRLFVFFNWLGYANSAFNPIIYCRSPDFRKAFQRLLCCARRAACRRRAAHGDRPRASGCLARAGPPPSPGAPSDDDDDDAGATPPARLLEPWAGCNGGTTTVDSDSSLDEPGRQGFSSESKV

As for `CCOC(=O)C(CCc1ccc(OCC(O)CNCCOc2ccccc2OC)cc1)NC(C)C(=O)N1CCCC1C(=O)O` (mixture of isomers) [compound 6, Labetapril], in assay [1], the “Decrease of blood pressure” value was determined as 65 ± 9.2 mmHg. In addition, the “β1 pA2 value, Left atrium” value in assay [2] stood at 5.31. Also, the “β2 pA2 value, Trachea” value in assay [3] came out at 5.43. For the same compound, the “Inhibitory activity of ACE, In Rat lung” value in assay [4] (10^−6M) was found to be 84%; in assay [4] (10^−7M), 72%; in assay [4] (10^−8M), 33%. Further, the “β1/β2 Ratio” value in assay [5] amounted to 1.4. Also, the “β1 pA2 value, Right atrium” value in assay [5] is on record as 5.41.

As to `CCOC(=O)C(CCc1ccccc1)NC(C)C(=O)N1CCCC1C(=O)OCc1ccc(OCC(O)CNC(C)(C)C)c(OC)c1` (stereo not shown) [compound 7, Vanynolpril], the “Decrease of blood pressure” value in assay [1] came out at 55 ± 6.3 mmHg. The “β1 pA2 value, Left atrium” value in assay [2] was 5.78. Besides, the “β2 pA2 value, Trachea” value in assay [3] is recorded as 5.64. Also, the “Inhibitory activity of ACE, In Rat lung” value in assay [4] (10^−6M) worked out at 81%; in assay [4] (10^−7M) it was 68%; in assay [4] (10^−8M) it was 31%. Besides, the “β1/β2 Ratio” value in assay [5] amounted to 1.9. Also, the “β1 pA2 value, Right atrium” value in assay [5] was determined as 5.87.
